# Source: US20070173450A1, “PROCESS FOR THE SYNCHRONIZATION OF OVULATION FOR TIMED BREEDING WITHOUT HEAT DETECTION” (priority 2003, published 2007)
# Tests used:
# Type in all cases: in vivo, swine
# [1] = tested on: mature postpartum sows; test: Intravulvar deslorelin at estrus detection in mature postpartum sows, AI breeding; conditions: live piglets born per litter, treated versus control
# Experimental: Sows were assigned randomly in blocks of two to either control or to be injected intravulvar with 50 mcg of deslorelin in SAIB at the time of estrus detection for sows first detected in estrus in the a.m. and 12 hours later for those first detected in estrus in the p.m. Treated animals were bred AI upon detected estrus and again 24 hours later if still in estrus. Controls received a saline injection on first detected estrus behavior estrus detection and were bred according to the farm's normal procedures.
# [2] = tested on: postpartum sows; test: Litter size after deslorelin treatment in sows at three farm sites; conditions: Tables 3-5, three farm sites, regardless of estrus detection
# Source text: Postpartum sows were randomly distributed into three different groups comprised of Controls, Treatment 1, and Treatment 2, with the exception of Site 3, which was divided into two groups, Control and Treatment 2. Control sows were detected for estrus following weaning, and bred following the normal standard operating procedures for the farms on which they resided. Treatment 1 sows were detected for estrus following weaning, and received a 50 mcg dose of deslorelin in the morning when standing and were bred by AI 4 hours later and again at 24+/−2 hours later. Treatment 2 sows received a 50 mcg dose of deslorelin in SAIB at 96 or 120 hours post-weaning and were bred with a single insemination 28+/−2 hours later with no regard to estrus detection.
# [3] = tested on: postpartum sows; test: Single timed deslorelin injection 96 h post-weaning, single timed insemination without estrus detection; conditions: 50 mcg deslorelin in SAIB 96 h post-weaning
# Experimental: Approximately 170 postpartum sows were randomly divided into two equal groups comprised of controls and treated. Following weaning, the controls were detected for estrus and bred following the normal standard operating procedures for the farms on which they resided. The treated sows received a 50 mcg dose of deslorelin in SAIB at 96 hours post-weaning and were bred with a single insemination 28+/−2 hours later with no regard to estrus detection. The sows were examined for pregnancy by ultrasound at 21 days and slaughtered around 28 days post breeding. The entire reproductive tract was removed and corpora lutea and embryos were counted.
smiles,measurement,setting,value
"CCNC(=O)[C@@H]1CCCN1C(=O)[C@H](CCCN=C(N)N)NC(=O)[C@H](CC(C)C)NC(=O)[C@@H](Cc1c[nH]c2ccccc12)NC(=O)[C@H](Cc1ccc(O)cc1)NC(=O)[C@H](CO)NC(=O)[C@H](Cc1c[nH]c2ccccc12)NC(=O)[C@H](Cc1cnc[nH]1)NC(=O)[C@@H]1CCC(=O)N1 [Deslorelin, deslorelin]","Live piglet number, Deslorelin versus Saline sows (greater by)",[1],Live piglet number 0.6> in Deslorelin versus Saline sows.
same,litter sizes (in words),[2],normal litter sizes
same,Pregnancy Rate,"[3]; single AI 28+/-2 h later, no estrus detection",71%
same,Embryo Survival,[3]; slaughter around 28 days post breeding,64%
same,Sows Pregnant,"[3]; of 84 in group, single AI 28+/-2 h later, no estrus detection",60
